These results are taken from ChEMBL document CHEMBL1158285, “Constituents from the stem wood of Euphorbia quinquecostata with phorbol dibutyrate receptor-binding inhibitory activity” (J Nat Prod, 1996).

Calls of active or inactive are those of the source. No cut-off for these calls is given here.

The species named for one test is Bos taurus. Kind of test: (§1) Displacement of [3H]PDBu from PKC in calf brain homogenate. The format is tissue-based. For orientation: Loss of bound radioactivity is the signal in a displacement assay; it reports binding, not function.
For the molecule `COc1cc(OC)c(C(=O)CO)c(O)c1C`, the outcome was inactive.

Biological target in the next test: not listed separately
The description is as §1. The format is tissue-based, Bos taurus.
Usually IC50 stands for the concentration that inhibits the measured activity by half. Lower therefore signals inhibition by little substance. `CC1(C)[C@H](O)CC[C@]2(C)[C@@H]1CC[C@@]13CC[C@@H](C[C@H]12)[C@](O)(CO)C3` gave a half-maximal inhibitory concentration (IC50) of 73 µM.
Same read-out and setting: with `C=C1C[C@@]23CC[C@@H]4C(C)(C)C(=O)CC[C@@]4(C)[C@@H]2C[C@@H]1[C@H](O)C3=O` the figure was over 630 µM; with `CCCCCCCCCCCCCCCC(=O)OCC1=C[C@@H]2C(=O)[C@]3(C=C(C)[C@H](O)[C@@]3(O)[C@@H]1O)[C@H](C)C[C@@H]1[C@H]2[C@]1(C)CO`, 0.023 µM.
The same measure, in the same setting: with `CCCCCCCCCCCCCCCC(=O)OCC1=C[C@@H]2C(=O)[C@]3(C=C(C)[C@H](O)[C@@]3(O)[C@@H]1O)[C@H](C)C[C@@H]1[C@H]2C1(C)C` the figure was 5.3 µM.
On the same count and under the same terms, in the case of `CC1(C)C(=O)CC[C@]2(C)[C@@H]1CC[C@@]13CC[C@@H](C[C@H]12)[C@](O)(CO)C3` it was 66 µM; in that of `CCCCCCCCCCCCCCCC(=O)OCC1=C[C@@H]2C(=O)[C@]3(C=C(C)[C@H](OC(C)=O)[C@@]3(O)[C@@H]1OC(C)=O)[C@H](C)C[C@@H]1[C@H]2[C@]1(C)COC(C)=O`, over 275 µM.
